Source: the supplement of paper PMC4862054

What was measured:
Settings in all cases: incubation time: 72 h
DU-4475 [1] = experiment: normalised response (% of control), CellTox Green; higher = less cell death (100 = DMSO, 0 = benzethonium chloride kill control)
In short: (§1)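 Breast cancer cell lines, seeded at 20 µl suspension per well, were incubated for 72 h in 384-well plates containing compound at 5 concentrations. These concentrations rose in 10-fold steps over a 10,000-fold range set for each compound. CellTox Green fluorescence (485/520 nm) was read, then CellTiter-Glo luminescence after 10 min at room temperature, and each plate was normalised to 0.1 % DMSO (100) and a positive kill control (0). Values are normalised signals, each at one concentration.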

MDA-MB-453 [2] = experiment: as above
In short: as §1

CAL-51 [3] = experiment: as above
In short: as §1

BT-549 [4] = experiment: as above
In short: as §1

MDA-MB-468 [5] = experiment: as above
In short: as §1

MDA-MB-436 [6] = experiment: as above
In short: as §1

MDA-MB-231 [7] = experiment: as above
In short: as §1

HCC1599 [8] = experiment: as above
In short: as §1

CAL-85-1 [9] = experiment: as above
In short: as §1

MCF-10A [10] = experiment: as above
In short: as §1

BT-474 [11] = experiment: as above
In short: as §1

MFM-223 [12] = experiment: as above
In short: as §1

CAL-120 [13] = experiment: as above
In short: as §1

HDQ-P1 [14] = experiment: as above
In short: as §1

HCC1143 [15] = experiment: as above
In short: as §1

CAL-148 [16] = experiment: as above
In short: as §1

DU-4475 [17] = experiment: normalised response (% of control), CellTiter-Glo; higher = more viable cells (100 = DMSO, 0 = benzethonium chloride kill control)
Procedure: (§2)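 DSRT, 72 h incubation, CellTox Green / CellTiter-Glo readout. Signal is normalised to DMSO and benzethonium chloride controls. Value is the normalised response at dose 3.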

MDA-MB-453 [18] = experiment: as above
Procedure: as §2

CAL-51 [19] = experiment: as above
Procedure: as §2

BT-549 [20] = experiment: as above
Procedure: as §2

MDA-MB-468 [21] = experiment: as above
Procedure: as §2

MDA-MB-436 [22] = experiment: as above
Procedure: as §2

Hs578T [23] = experiment: as above
Procedure: as §2

MDA-MB-231 [24] = experiment: as above
Procedure: as §2

HCC1599 [25] = experiment: as above
Procedure: as §2

CAL-85-1 [26] = experiment: as above
Procedure: as §2

HCC1937 [27] = experiment: as above
Procedure: as §2

MCF-10A [28] = experiment: as above
Procedure: as §2

BT-474 [29] = experiment: as above
Procedure: as §2

MFM-223 [30] = experiment: as above
Procedure: as §2

CAL-120 [31] = experiment: as above
Procedure: as §2

HDQ-P1 [32] = experiment: as above
Procedure: as §2

HCC1143 [33] = experiment: as above
Procedure: as §2

SK-BR-3 = experiment: as above
Procedure: as §2

CAL-148 [34] = experiment: as above
Procedure: as §2

HCC1937 [35] = experiment: normalised response (% of control), CellTox Green; higher = less cell death (100 = DMSO, 0 = benzethonium chloride kill control)
In short: as §1

Hs578T [36] = experiment: as above
In short: as §1

SMILES | normalised response (DU-4475 [1]) [%] | normalised response (MDA-MB-453 [2]) [%] | normalised response (CAL-51 [3]) [%] | normalised response (BT-549 [4]) [%] | normalised response (MDA-MB-468 [5]) [%] | normalised response (MDA-MB-436 [6]) [%] | normalised response (MDA-MB-231 [7]) [%] | normalised response (HCC1599 [8]) [%] | normalised response (CAL-85-1 [9]) [%] | normalised response (MCF-10A [10]) [%] | normalised response (BT-474 [11]) [%] | normalised response (MFM-223 [12]) [%] | normalised response (CAL-120 [13]) [%] | normalised response (HDQ-P1 [14]) [%] | normalised response (HCC1143 [15]) [%] | normalised response (CAL-148 [16]) [%] | normalised response (DU-4475 [17]) [%] | normalised response (MDA-MB-453 [18]) [%] | normalised response (CAL-51 [19]) [%] | normalised response (BT-549 [20]) [%] | normalised response (MDA-MB-468 [21]) [%] | normalised response (MDA-MB-436 [22]) [%] | normalised response (Hs578T [23]) [%] | normalised response (MDA-MB-231 [24]) [%] | normalised response (HCC1599 [25]) [%] | normalised response (CAL-85-1 [26]) [%] | normalised response (HCC1937 [27]) [%] | normalised response (MCF-10A [28]) [%] | normalised response (BT-474 [29]) [%] | normalised response (MFM-223 [30]) [%] | normalised response (CAL-120 [31]) [%] | normalised response (HDQ-P1 [32]) [%] | normalised response (HCC1143 [33]) [%] | normalised response (SK-BR-3) [%] | normalised response (CAL-148 [34]) [%] | normalised response (HCC1937 [35]) [%] | normalised response (Hs578T [36]) [%]
COc1cc([C@@H]2c3cc4c(cc3[C@@H](O[C@@H]3O[C@@H]5CO[C@@H](c6cccs6)O[C@H]5[C@H](O)[C@H]3O)[C@H]3COC(=O)[C@H]23)OCO4)cc(OC)c1O [Teniposide] (100 nM) | 93.6 | 107 | 74.2 | 90.5 | 54.9 | 95.1 | 103 | 91.3 | 89.4 | 83.6 | 99.7 | 99.3 | 96 | 102 | 111 | 36.3 | 69.2 | 118 | 78.5 | 68 | 79.3 | 62.6 | 90 | 94.3 | 66.7 | 91.6 | 91.9 | 88.2 | 87.8 | 108 | 94.7 | 96.4 | 83.2 | 58.5 | 74.5 | – | –
COc1cc2nccc(Oc3ccc(NC(=O)Nc4cc(C)on4)c(Cl)c3)c2cc1OC [Tivozanib] (100 nM) | 96.9 | 97.2 | 108 | 109 | 110 | – | 94.9 | 104 | 98.6 | 96.3 | 96 | 103 | 96.9 | 94.8 | 89 | 102 | 98.1 | 87.7 | 99.6 | 106 | 93.6 | 91.2 | 93.7 | 96.2 | 102 | 99.5 | 95.1 | 94.5 | 93 | 86.1 | 94.2 | 104 | 102 | 83.3 | 88.5 | 117 | –
CC1=C(/C=C/C(C)=C/C=C/C(C)=C/C(=O)O)C(C)(C)CCC1 [Tretinoin] (100 nM) | 108 | 109 | 102 | 115 | 159 | 106 | 117 | 99.1 | 102 | 105 | 103 | 103 | 101 | 108 | 96.3 | 95.3 | 98.3 | 108 | 87.7 | 102 | 92 | 100 | 98.5 | 102 | 103 | 97.5 | 95.8 | 88.7 | 92.7 | 93.7 | 105 | 100 | 97.4 | 79.8 | 91.9 | 92.8 | –
COc1cc2c(NC3CCN(C(C)C)CC3)nc(C3CCCCC3)nc2cc1OCCCN1CCCC1 [UNC0638] (100 nM) | 97.4 | 99.2 | 99.5 | 63.7 | 119 | 94.6 | 102 | 101 | 111 | 98.3 | 101 | 102 | 100 | 102 | 107 | 96.8 | 86.5 | 92.7 | 97.3 | 101 | 83.8 | 102 | 97.4 | 92.2 | 80.8 | 98.8 | 92.2 | 88 | 94.1 | 88.6 | 101 | 97 | 100 | 80.1 | 88 | – | –
Oc1ncc(N(CCCl)CCCl)c(O)n1 [Uracil mustard] (100 nM) | 108 | 110 | 109 | 111 | 154 | 109 | 118 | 102 | 114 | 114 | 104 | 102 | 106 | – | 113 | 103 | 99.1 | 95.5 | 110 | 105 | 94.6 | 98.9 | 102 | 100 | 95.5 | 96.7 | 98 | 101 | 106 | 104 | 103 | 104 | 100 | 101 | 100 | 88 | 111
